In patent publication US20170204380A1, “GLYCOSYL TRANSFERASES AND THEIR USES” (TECHNISCHE UNIVERSITAT MUNCHEN, priority 2014, published 2017):
Read-outs that look alike come from different tables or passages of the source.

Tests used:
VvGT16 [1] = molecular target: T1, VvGT16 (Vitis vinifera, UniProt F6HTJ4)
Experimental: (§1) The measurements were performed under the following conditions. […] Radioactivity was determined by LSC.

VvGT14a [2] = molecular target: T2, VvGT14a (Vitis vinifera, UniProt F6H0R6); assay: Substrate screening, radiochemical analysis with UDP-[14C]glucose; type: biochemical
T2 sequence (F6H0R6 entry or part of it): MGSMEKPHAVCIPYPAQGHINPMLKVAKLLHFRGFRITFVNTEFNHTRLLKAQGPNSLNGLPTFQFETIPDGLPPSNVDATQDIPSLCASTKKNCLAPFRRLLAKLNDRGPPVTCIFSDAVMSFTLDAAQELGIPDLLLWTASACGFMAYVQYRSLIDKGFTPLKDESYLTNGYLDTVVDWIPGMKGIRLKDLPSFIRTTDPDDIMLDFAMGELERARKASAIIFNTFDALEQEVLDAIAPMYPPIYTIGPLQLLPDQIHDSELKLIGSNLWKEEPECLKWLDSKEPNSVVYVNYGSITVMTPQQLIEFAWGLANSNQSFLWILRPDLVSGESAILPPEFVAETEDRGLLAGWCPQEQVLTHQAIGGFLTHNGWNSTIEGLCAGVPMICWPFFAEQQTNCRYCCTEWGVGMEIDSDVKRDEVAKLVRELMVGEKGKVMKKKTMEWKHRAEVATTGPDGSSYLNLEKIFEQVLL
Experimental: (§2) In the initial screening, each reaction mixture (200 μL in total) contained Tris-HCl buffer (100 mM, pH 8, 10 mM 2-mercaptoethanol), 37 pmol UDP-[^14C]glucose (0.01 μCi, Biotrend, Köln, Germany), substrate (50 μL of a 1 mg/mL stock solution) and purified protein (0.5-0.8 μg/μL). […] The organic phase was mixed with 2 mL Pro Flow P+ cocktail (Meridian Biotechnologies Ltd., Epsom, UK) and radioactivity was determined by liquid scintillation counting (LSC, Tri-Carb 2800TR, Perkin Elmer, Waltham Mass., USA). Additionally, negative controls without substrate were performed.
(§3) The recombinant proteins were expressed with an N-terminal GST-tag, affinity purified and verified by SDS-PAGE and Western Blot using GST-specific antibody.

VvGT15a [3] = molecular target: T3, VvGT15a (Vitis vinifera, UniProt A0ABY9C1E0); assay: as above; type: biochemical
T3 sequence (A0ABY9C1E0 entry or part of it): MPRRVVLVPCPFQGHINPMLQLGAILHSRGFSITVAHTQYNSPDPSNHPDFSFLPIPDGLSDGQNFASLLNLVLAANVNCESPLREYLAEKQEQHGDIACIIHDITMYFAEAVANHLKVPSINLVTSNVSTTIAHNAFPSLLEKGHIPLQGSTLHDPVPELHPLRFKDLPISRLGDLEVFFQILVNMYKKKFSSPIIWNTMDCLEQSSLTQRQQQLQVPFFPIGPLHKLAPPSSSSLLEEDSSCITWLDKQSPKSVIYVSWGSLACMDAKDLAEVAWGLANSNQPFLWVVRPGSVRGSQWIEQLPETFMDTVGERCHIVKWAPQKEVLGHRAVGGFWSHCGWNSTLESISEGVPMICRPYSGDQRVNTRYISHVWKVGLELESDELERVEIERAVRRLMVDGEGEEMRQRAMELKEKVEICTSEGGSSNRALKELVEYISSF
Experimental: as §2, §3

VvGT15b [4] = molecular target: T4, VvGT15b (Vitis vinifera, UniProt A0ABY9C1E0); assay: as above; type: biochemical
T4 sequence (A0ABY9C1E0 entry or part of it): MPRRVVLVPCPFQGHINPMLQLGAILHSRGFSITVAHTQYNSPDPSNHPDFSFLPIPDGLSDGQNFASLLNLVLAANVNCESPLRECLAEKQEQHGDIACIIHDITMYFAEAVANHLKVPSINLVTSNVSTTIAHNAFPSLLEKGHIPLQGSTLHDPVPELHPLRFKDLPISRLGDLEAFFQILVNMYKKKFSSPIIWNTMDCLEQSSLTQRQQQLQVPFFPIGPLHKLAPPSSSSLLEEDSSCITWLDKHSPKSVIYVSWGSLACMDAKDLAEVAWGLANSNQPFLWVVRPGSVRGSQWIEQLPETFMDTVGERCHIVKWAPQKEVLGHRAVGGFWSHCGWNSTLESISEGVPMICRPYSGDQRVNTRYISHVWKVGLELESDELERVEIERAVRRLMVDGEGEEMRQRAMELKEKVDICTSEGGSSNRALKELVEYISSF
Experimental: as §2, §3

VvGT15c [5] = molecular target: T5, VvGT15c (Vitis vinifera, UniProt A0ABY9C1E0); assay: as above; type: biochemical
Experimental: as §2, §3

VvGT16 [6] = molecular target: T1, VvGT16; assay: as above; type: biochemical
Experimental: as §2, §3

VvGT14a [7] = molecular target: T2, VvGT14a; assay: Enantioselectivity by chiral phase SPME-GC-MS after hydrolysis of the formed glucoside; type: biochemical; details: racemic substrate, prolonged incubation (24 h)
Experimental: (§4) To determine the enantioselectivity of VvGT14 and VvGT15 the enantiomeric ratio of glucosidically bound citronellol and linalool was determined by enantioselective GC-MS. Following the incubation, residual citronellol and linalool were completely removed by extraction with dichloromethane. Chronellyl β-D-glucoside which remained in the aqueous phase was hydrolyzed by HCl (2 mL, 0.1 M, pH 1) for one hour at 100° C. to release citronellol (Skouroumounis and Sefton, 2000). In case of linalyl β-D-glucoside an enzymatic hydrolysis (AR 2000, citric acid buffer pH 4, 24 h) was applied due to the instability of linalool in acid solutions (Williams et al., 1982). […] After hydrolysis, citronellol and linalool were analyzed by SPME-GC-MS as described above.
(§5) GC-MS analysis was performed with a Varian GC-450 coupled to a Varian MS-240 ion-trap employing a Phenomenex Zebron ZB-WAXplus column (30 m×0.25 mm×0.25 μm, Aschaffenburg, Germany). Helium flow rate was 1 mL/min. The analysis was carried out in split mode (liquid injections) or splitless mode (SPME measurements) with 220° C. injector temperature. EI (electron impact ionization)-MS spectra were recorded from m/z 40 to 300 (ionization energy 70 eV; trap temperature 170° C.). The oven temperature program was 60° C. (3 min), 10° C./min up to 250° C. (5 min). In case of SPME measurements, liberated aglycones were isolated for 10 min at 60° C. using a fiber coated with a 85 μm film of polyacrylate (SUPELCO, Bellefonte, USA). After extraction the SPME fiber was desorbed for 10 min at 250° C. in the injection port of the GC-MS system and the column oven program was carried out as described above. Enantioselective GC-MS analysis was performed with a Varian GC-450 coupled to a Varian MS-240 ion-trap. The column was a DiAcB (heptakis-(2,3-di-O-acetyl-6-O-tert.-butyldimethylsilyl)-B-cyclodextrin), 26 m×0.32 mm i.d. with a 0.1 μm film. […] GC-MS measurements were recorded in full scan mode. Selected ion monitoring (SIM) mode was used for quantification.

VvGT15a [8] = molecular target: T3, VvGT15a; assay: as above; type: biochemical; details: racemic substrate, prolonged incubation (24 h)
Experimental: as §4, §5

VvGT14a [9] = molecular target: T2, VvGT14a; details: for kcat/KM of VvGT14a higher than the value for UGT85B1 from Sorghum bicolor: VvGT14a versus UGT85B1
VvGT15a [10] = molecular target: T3, VvGT15a; type: biochemical; details: UDP-glucose fixed 833 μM (for UDP-glucose: geraniol fixed 1.25 mM), Tris-HCl pH 7.5, 30° C.
Experimental: as §1

VvGT15b [11] = molecular target: T4, VvGT15b; type: biochemical; details: UDP-glucose fixed 833 μM (for UDP-glucose: geraniol fixed 1.25 mM), Tris-HCl pH 7.5, 30° C.
Experimental: as §1

VvGT15c [12] = molecular target: T5, VvGT15c; type: biochemical; details: UDP-glucose fixed 833 μM (for UDP-glucose: geraniol fixed 1.25 mM), Tris-HCl pH 7.5, 30° C.
Experimental: as §1

[13] = UDP-glucose fixed 512.5 μM (for UDP-glucose: geraniol fixed 1.25 mM), Tris-HCl pH 8.5, 30° C.

T1 sequence (F6HTJ4 entry or part of it): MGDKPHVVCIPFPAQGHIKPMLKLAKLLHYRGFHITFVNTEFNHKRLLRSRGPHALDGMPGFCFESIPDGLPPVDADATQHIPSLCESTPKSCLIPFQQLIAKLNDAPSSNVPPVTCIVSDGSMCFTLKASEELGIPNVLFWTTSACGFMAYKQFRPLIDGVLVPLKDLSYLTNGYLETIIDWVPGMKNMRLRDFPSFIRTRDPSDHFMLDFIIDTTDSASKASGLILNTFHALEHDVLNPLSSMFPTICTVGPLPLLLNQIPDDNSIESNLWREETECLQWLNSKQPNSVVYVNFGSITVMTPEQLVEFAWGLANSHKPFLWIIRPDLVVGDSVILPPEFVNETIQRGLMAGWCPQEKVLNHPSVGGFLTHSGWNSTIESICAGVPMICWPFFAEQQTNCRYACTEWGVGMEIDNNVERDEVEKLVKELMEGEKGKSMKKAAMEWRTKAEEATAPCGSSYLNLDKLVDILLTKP

SMILES	Km (VvGT16 [1]; [13]) [µM]	kcat (VvGT16 [1]; [13]) [s⁻¹]	transformation of R- and S-citronellol (in words) (VvGT16 [1]; radiochemical assays)	conversion as substrate (in words) (VvGT14a [2])	conversion as substrate (in words) (VvGT15a [3])	conversion as substrate (in words) (VvGT15b [4])	conversion as substrate (in words) (VvGT15c [5])	conversion as substrate (in words) (VvGT16 [6])	enantiomeric preference, aglycone liberated from the formed glucoside (VvGT14a [7])	enantiomeric preference, aglycone liberated from the formed glucoside (VvGT15a [8])	kcat/KM of VvGT14a higher than the value for UGT85B1 from Sorghum bicolor (VvGT14a [9]) [fold]	Km (VvGT15a [10]) [µM]	kcat (VvGT15a [10]) [s⁻¹]	Km (VvGT15b [11]) [µM]	kcat (VvGT15b [11]) [s⁻¹]	kcat (VvGT15b [11]; listed as geraniol) [s⁻¹]	Km (VvGT15c [12]) [µM]	kcat (VvGT15c [12]) [s⁻¹]	Km (VvGT14a [9]; pH 8.5) [µM]	kcat (VvGT14a [9]; pH 8.5) [s⁻¹]
CC(C)=CCCC(C)CCO (racemic) [citronellol (rac), (R,S)-3,7-dimethyl-6-octen-1-ol]	108 ± 2.5	0.008	same efficiency	preferred	glucosylated primarily	glucosylated primarily	glucosylated primarily	transformed	no enantio-discrimination	no enantio-discrimination	4	–	–	–	–	–	–	–	–	–
C=CC(C)(O)CCC=C(C)C (racemic) [linalool (rac), (R,S)-3,7-dimethyl-1,6-octadien-3-ol]	–	–	–	catalytic activity	–	–	–	–	slight enrichment of the R-enantiomer	–	–	–	–	–	–	–	–	–	–	–
CC(C)=CCC/C(C)=C/CO [Geraniol, (E)-3,7-dimethyl-2,6-octadien-1-ol]	–	0.015	–	preferred	glucosylated primarily	glucosylated primarily	glucosylated primarily	–	–	–	4	63	0.12	81	0.10	0.1	43	0.17	9	0.02
